Measurements as given in patent EP1379135B1, “FORMULATIONS COMPRISING ENTRAPPED ACTIVE INGREDIENTS AND USES THEREOF” (THE SCRIPPS RESEARCH INSTITUTE, priority 2001, dated 2002).
“Also recorded” adds a separate entry of the source.

Assays:
[1] = tested on: IL-1β induced NO production in normal human articular chondrocytes; test: IL-1β induced NO production in cultured chondrocytes (NO2 accumulation, Griess reaction); type: cell-based; settings: for inhibitory activity on IL-1β induced NO production: concentration of 10 mM
Protocol: Chondrocytes were isolated from the cartilage by collagenase digestion and maintained in continuous monolayer cultures in DMEM containing 10% fetal bovine serum (FBS). Cell viability after chondrocyte isolation by collagenase digestion of normal cartilage was >95%. This level was maintained for at least 96 hrs post mortem. […] Experiments reported were performed with primary or first passage cells.
Chondrocytes were plated at 40,000 cells/well in 96-well plates in the presence of 1 % FBS. After 48 h, the medium was changed, and the cells were stimulated with IL-1β (Sigma) at a concentration of 5 ng/ml for 24 h. NO production was detected as NO2 accumulation in the culture supernatants by the Griess reaction as described elsewhere (Heval et al., (1994) Methods Enzymol. 233:250). IL-6 in the culture supernatants was measured by ELISA (R&D Systems, Minneapolis, MN) in accordance with the supplier's protocol.

[2] = tested on: TNFα induced nitric oxide (NO) production in normal human articular chondrocytes; test: TNFα induced NO production in chondrocytes; type: cell-based
chondrocytes = test: Cell viability, MTT assay; type: cell-based, human; settings: up to 20 mM
bradykinin-induced pain = test: Bradykinin-induced pain after intra-articular administration (walking behavior pain score); type: in vivo, Wistar rats; settings: intra-articular administration in rats; Figure 6
Protocol: The purpose of this study was to investigate the analgesic effects of GlcNAc with or without liposomal formulations, injected intra-articularly into the joint of Wistar rats. Pain was induced by intra-articular administration of bradykinin. Adult male Wistar rats with a weight range from 220g to 250g were obtained from Laboratory Animals Centre, National University of Singapore. Bradykinin and GlcNAc were obtained from Sigma. The liposomes were prepared as described above.
50 µl of GlcNAc solution or an GIcNAc formulated liposome suspension was injected into a rat joint cavity. An equal volume of saline was given intra-articularly as a control. 50 µl of bradykinin (60 µg/ml or at the indicated concentration) was given intra-articularly at different time points following the administration of GlcNAc.
Changes in walking behavior caused by intra-articular injection of bradykinin were used to define induced pain criteria in rats. The methods used to observe the pain response are defined in Table 2. The degree of pain was assigned a score according to the criteria in Table 3.

Molecule | NO production triggered by IL-1β [1] | inhibitory activity on IL-1β induced NO production [1] | TNFα induced nitric oxide (NO) production [2] | also measured
CC(=O)N[C@H]1[C@H](O[C@H]2[C@H](O)[C@@H](NC(C)=O)C(O)O[C@@H]2CO)O[C@H](CO)[C@@H](O)[C@@H]1O (stereo partly shown) [GlcNAc dimers, N,N'-diacetylchitobiose] | did not express inhibitory activity | – | – | –
CC(=O)N[C@@H]1C(O)O[C@H](CO)[C@@H](O)[C@@H]1O (stereo partly shown) [N-acetylmannosamine] | – | did not inhibit | did not inhibit | –
N[C@H]1C(O)O[C@H](CO)[C@@H](O)[C@@H]1O (stereo partly shown) [GA, glucosamine] | suppressed NO production; also recorded: measurably inhibited NO production in the lower millimolar range | – | inhibit | concentrations not effective in inhibiting NO production [1]: below 1 mM; IC50 ([1]; Homo sapiens, Chondrocyte, IL-1β 5 ng/ml for 24 h, GlcNAc vs GA p < 0.01, read-out: IC50 (inhibition of NO production)): 14.9 ± 2.1 mM; cell viability (chondrocytes): Neither GA nor GlcNAc at dosages up to 20 mM affected cell viability
CC(=O)N[C@H]1C(O)O[C@H](CO)[C@H](O)[C@@H]1O (stereo partly shown) [N-acetylgalactosamine] | – | demonstrated inhibitory activity | – | –
CC(=O)N[C@H]1[C@H](O[C@H]2[C@H](O)[C@@H](NC(C)=O)C(O)O[C@@H]2CO)O[C@H](CO)[C@@H](O[C@@H]2O[C@H](CO)[C@@H](O)[C@H](O)[C@H]2NC(C)=O)[C@@H]1O (stereo partly shown) [trimers, N,N',N"-triacetylchitotriose] | did not express inhibitory activity | – | – | –
Bradykinin (RPPGFSPFR; Bradykinin; UniProt P01042 381-389, looked up) | – | – | – | pain scores, dose response (bradykinin-induced pain): Higher pain scores correlate with the amount of injected Bradykinin
O=C[C@H](O)[C@@H](O)[C@H](O)[C@H](O)C(=O)O [glucuronic acid] | – | did not inhibit | did not inhibit | –
